Data reported in patent US20100092526A1, “NANOEMULSION THERAPEUTIC COMPOSITIONS AND METHODS OF USING THE SAME” (NanoBio Corporation, priority 2008, published 2010).
≈ marks a conversion by molar mass, not a printed value. Where “and” joins values, the source holds several entries; their conditions need not be identical. Equal values may be shown once.

How the values were obtained:
Format in all cases: cell-based
[1] = test system: Acinetobacter baumannii; test: MIC/MBC of nanoemulsions against gram-negative isolates (CLSI, alamar blue); settings: 5 isolates; 5 mM EDTA
[2] = test system: Stenotrophomonas maltophilia; test: as above; settings: 5 isolates; 5 mM EDTA
[3] = test system: methicillin-resistant Staphylococcus aureus (MRSA); test: Susceptibility (MIC/MBC) of MRSA clinical isolates; settings: for MBC50(15) / MIC50(15) / MBC90(26) / MIC90(26): 29 MRSA clinical isolates; for MBC50(15) / MIC50(15): rank 15; for MBC90(26) / MIC90(26): rank 26; for MBC / MIC: individual MRSA clinical isolates, values listed by rank order 1-29

MIC50(15) [3] [µg/mL] | MIC90(26) [3] [µg/mL] | SMILES | MBC50(15) [3] [µg/mL] | MBC90(26) [3] [µg/mL] | MBC [3] | MIC [3] | other results
 |  | O=C(O)CN(CCN(CC(=O)O)CC(=O)O)CC(=O)O [EDTA, ethylenediaminetetraacetic acid] |  |  |  |  | strains inhibited by EDTA alone [1]: 3 strains; strains inhibited by EDTA alone [2]: 5 strains
>16 | >16 | Cc1onc(-c2ccccc2)c1C(=O)N[C@@H]1C(=O)N2[C@@H]1SC(C)(C)[C@@H]2C(=O)O [Ox] | >16 | >16 | >16 μg/ml (28×) and 1 μg/ml | >16 μg/ml (26×) and 16 μg/ml (2×) and 0.5 μg/ml | 
 |  | C/C(=C\C(=O)OCCCCCCCCC(=O)O)C[C@@H]1OC[C@H](C[C@@H]2O[C@H]2[C@@H](C)[C@H](C)O)[C@@H](O)[C@H]1O [Mupirocin, mupirocin] |  |  |  |  | isolates resistant ([3]; MRSA isolates): 31%
 |  | C[C@H]1c2cccc(O)c2C(=O)C2=C(O)[C@]3(O)C(=O)C(C(N)=O)=C(O)[C@@H](N(C)C)[C@@H]3[C@@H](O)[C@@H]21 [doxycycline] |  |  |  |  | MIC90 ([3]; Staphylococcus aureus, MRSA isolates, read-out: MIC90): 4 µg/mL (≈ 9 µM)
0.125 (≈ 0.431 µM) | 0.5 (≈ 1.72 µM) | COc1cc(Cc2cnc(N)nc2N)cc(OC)c1OC [Trim] | 0.5 (≈ 1.72 µM) | >4 | >64 μg/ml and >16 μg/ml (2×) and >4 μg/ml and >2 μg/ml (3×) and 4 μg/ml and 2 μg/ml (3×) and 1 μg/ml (2×) and 0.5 μg/ml (5×) and 0.25 μg/ml (6×) and 0.125 μg/ml (4×) and 0.0125 μg/ml | >64 μg/ml and 1 μg/ml (2×) and 0.5 μg/ml and 0.25 μg/ml and 0.125 μg/ml (24×) | 
